What was measured:
[1] = target: human c-MER catalytic domain (Homo sapiens (Human), UniProt Q12866); assay: LanthaScreen TR-FRET biochemical kinase assay (c-MER); conditions: read-out: Mer TK inhibition (IC50), 10 uM ATP
[2] = system: Ba/F3-CDM cells (Ba/F3 transfected with CD8-MerTK); assay: In cell MER kinase assay, Ba/F3-CDM cell proliferation without IL-3 (Celltiter-Glo, GI50); assay type: cell-based, murine; conditions: 48 hours, read-out: Cell growth inhibition (GI50)
Method in brief: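 Ba/F3 cells expressing CD8-MerTK were grown without IL-3, so that proliferation depends on MerTK. Cells were pre-incubated 24 h, then exposed to compound for 48 h. Viability was read by CellTiter-Glo, with IL-3-supplemented Ba/F3 run in parallel as a nonspecific cytotoxicity control, and GI50 was derived.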

Sequence of human c-MER catalytic domain (Q12866 587-858): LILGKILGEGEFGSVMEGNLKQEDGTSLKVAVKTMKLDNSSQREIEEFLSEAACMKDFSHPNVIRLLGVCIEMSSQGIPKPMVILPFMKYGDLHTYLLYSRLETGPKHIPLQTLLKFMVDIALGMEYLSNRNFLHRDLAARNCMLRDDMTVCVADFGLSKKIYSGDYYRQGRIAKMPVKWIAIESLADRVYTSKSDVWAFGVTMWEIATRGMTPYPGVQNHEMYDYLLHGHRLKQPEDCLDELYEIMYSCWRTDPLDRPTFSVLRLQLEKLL

## C[C@@H]1CN(Cc2ccc(-c3ccc(CO[C@H]4CCC[C@@H]4NC(=O)c4cc(-c5cnn(C)c5)cnc4N)cc3)cc2)C[C@H](C)N1C [Example 190, 2-amino-5-(1-methyl-1H-pyrazol-4-yl)-N-((1S,2S)-2-((4′-((cis-3,4,5-trimethylpiperazin-1-yl)methyl)-[1,1′-biphenyl]-4-yl)methoxy)cyclopentyl)-nicotinamide]
[1]
  IC50: < 10 nM
[2]
  GI50: < 100 nM

## C[C@@H]1CN(C)[C@@H](C)CN1Cc1ccc(-c2ccc(CO[C@H]3CCC[C@@H]3NC(=O)c3cc(-c4cnn(C)c4)cnc3N)cc2)cc1 [Example 192, 2-amino-5-(1-methyl-1H-pyrazol-4-yl)-N-((1S,2S)-2-((4′-(((2R,5S)-2,4,5-trimethylpiperazin-1-yl)methyl)-[1,1′-biphenyl]-4-yl)methoxy)cyclopentyl)nicotinamide]
[1]
  IC50: < 10 nM
[2]
  GI50: < 100 nM

## CCc1cc(CO[C@H]2CNC[C@@H]2NC(=O)c2cc(-c3ccc(CO)cc3)cnc2N)ccc1C [Example 389, 2-amino-N-((3S,4S)-4-((3-ethyl-4-methylbenzyl)oxy)pyrrolidin-3-yl)-5-(4-(hydroxymethyl)phenyl)nicotinamide]
[1]
  IC50: < 10 nM
[2]
  GI50: 100 to 500 nM
